Values quoted from earlier work as cited in publication PMC4617652 (Journal of the American Chemical Society, 2015).
Read-outs that look alike come from different tables or passages of the source.

Structure (SMILES): C1CCC2=NCCCN2CC1 [DBU]
- pKBH+ of reference base (MeCN ref 24): 24.34

Structure (SMILES): CC(C)(C)N=P(N1CCCC1)(N1CCCC1)N1CCCC1 [P1-tBu(pyrr)3]
- pKBH+ of reference base (MeCN ref 19): 28.35

Structure (SMILES): CCN=P(N=P(N(C)C)(N(C)C)N(C)C)(N(C)C)N(C)C [P2-Et]
- pKBH+ of reference base (MeCN ref 6c): 32.94
